This is an account of results in US9226929B2, “Pharmaceutically active disubstituted triazine derivatives” (Bayer Intellectual Property GMBH, priority 2011, dated 2016).

Format in all cases: cell-based
In assay [1] the test system is LPS-induced TNF alpha release in PBMCs. The experiment in a line: TNF alpha Release Assay. The settings on record: Homo sapiens, PBMC, 1 μg/mL LPS, 6 h, read-out: TNF alpha release (activity range), IC50. The protocol:
3.3 TNF alpha Release Assay
Freshly isolated peripheral blood mononuclear cells (PBMCs) were seeded in 96-well cell culture plates with 200,000 cells in 100 μl cell culture medium (DMEM cell culture medium+glutamine from PAN Biotech GmbH, Aidenbach, Germany) supplemented with 10% fetal calf serum (PAA Laboratories GmbH, Pasching, Austria) per well and incubated overnight at 37° C., 5% CO2. To each well, 100 μL cell culture medium with 2× concentrated test compounds diluted from 10 mM DMSO stocks, or 100 μL DMEM with 0.4% DMSO for control wells, was added. The compounds of general formula (I) summarized in Table 6 were used in this assay. After incubation for 1 h at 37° C., 5% CO2, cells were stimulated with 1 μg/mL LPS (Lipopolysaccharides, Sigma, catalog #L4391-1 MG; 1 mg/ml stock solution), or left untreated for negative controls, and plates were incubated for 6 h at 37° C./5% CO2. The cell culture plates were centrifuged at 2000 rpm for 5 minutes, and supernatants were transferred to fresh 96-well polypropylene plates. 25 μL of supernatants were transferred into 96-well-plates of the human TNF alpha-tissue culture kit (Meso Scale Discovery, Gaithersburg, Md., USA), and manufacturer's instructions were followed for analysis of TNF alpha levels. […]

The test system of the next assay is Hela cells. The experiment in a line: Cell Viability Assay, Hela cells. The settings on record: Homo sapiens, 72 h, Cell Titer Glo, read-out: Cell Viability - Hela cells (activity range), IC50. How it is done:
(§1) 3.4 Cell Viability Assays
(§2) Hela- or MDAMB468-Cells were maintained in RPMI 1640 or McCoy's 5A cell culture medium+glutamine (PAN Biotech GmbH, Aidenbach, Germany; order no. PO4-22100; PO4-05500) supplemented with 10% fetal calf serum “Gold” (PAA Laboratories GmbH, Pasching, Austria; order no. A15-151) and grown at 37° C., 5% CO2. For the cell viability assay, cells were seeded with a density of 400 (Hela cells, DSMZ Braunschweig order no. ACC57) or 800 (MDAMB468 cells, ATCC order no. HTB-132) per well in 25 μL in 384-well plates (Greiner Bio-One, Frickenhausen, Germany; order no. 781080). After overnight incubation at 37° C./5% CO2, 25 nL or 75 nL compound were added to each sample well by using BIOMEK FXP Laboratory Automation Workstation (Beckman Coulter, USA). Wells with cells and 0.1% or 0,3% DMSO in culture medium were used as positive controls, wells with cells and 10 μM staurosporine in culture medium were used as negative controls. The cells were incubated with the compounds for 72 h at 37° C./5% CO2. For measurement of cell viability 25 μL Cell Titer Glo reagent (Promega, Madison, USA; order no. G7573), 1:2 diluted with cell culture medium, was added to each well. The 384we11-plates were placed for 2 min on a orbital microplate shaker and incubated for further 10 min at room temperature to stabilize the luminescence signal.
(§3) Luminescence was measured by Envision Plate Reader (Perkin Elmer, USA). IC50 values were calculated with the software Excel Fit (IDBS, Guildford, UK) from 3-fold dilution series comprising at least 8 concentrations in duplicates.

The next assay has as its system MDAMB468 cells. The experiment in a line: Cell Viability Assay, MDAMB468 cells. The following applies: Homo sapiens, MDA-MB-468; 72 h, Cell Titer Glo; read-out: Cell Viability - MDAMB468 cells (activity range), IC50. How it is done: as §1, §2, §3

Molecules are shown by their SMILES.

In the case of `NS(=O)(=O)Cc1cccc(Nc2ncnc(N3CCCCC3)n2)c1` [Compound B1, 3-[(4-(Piperidin-1-yl)-1,3,5-triazin-2-yl)amino]benzenemethane sulfonamide], the IC50 in assay [1] is greater than 10 µM.
Same read-out and setting: to `COC[C@H]1CCCN1c1ncnc(Nc2cccc(CS(N)(=O)=O)c2)n1` [Compound B17, (R)-3-[(4-(2-(Methoxymethyl)pyrrolidin-1-yl)-1,3,5-triazin-2-yl)amino]benzenemethanesulfonamide] belongs 1 to 10 µM.
With `NS(=O)(=O)Cc1cccc(Nc2ncnc(N3CCc4nc[nH]c4C3)n2)c1` [Compound B44, 3-[(4-(6,7-Dihydro-3H-imidazo[4,5-c]pyridin-5(4H)-yl)-1,3,5-triazin-2-yl)amino]benzenemethanesulfonamide], the half-inhibitory concentration (IC50) in the assay on Hela cells and in the assay with MDAMB468 cells was greater than 10 µM in each case.
`NS(=O)(=O)Cc1cccc(Nc2ncnc(N3CCc4ncsc4C3)n2)c1` [Compound B45, 3-[(4-(6,7-Dihydrothiazolo[5,4-c]pyridin-5(4H)-yl)-1,3,5-triazin-2-yl)amino]benzenemethanesulfonamide]: the IC50 in the assay with Hela cells and with MDAMB468 cells was 1 to 10 µM throughout.
Take `NS(=O)(=O)Cc1cccc(Nc2ncnc(N3Cc4cn[nH]c4C3)n2)c1` [Compound B51, 3-[(4-(Pyrrolo[3,4-c]pyrazol-5(1H,4H,6H)-yl)-1,3,5-triazin-2-yl)amino]-benzenemethanesulfonamide]: the IC50 with Hela cells and in the assay on MDAMB468 cells was greater than 10 µM each time.
